Data taken from patent publication US10238631B2, “Sesquiterpene derivatives and their use in inflammation or cancer treatment” (Academia Sinica, priority 2014, dated 2019).
Where two headings read alike, the source gives them in different places.

Columns and labels:
[1] = test system: MDA-MB-231 (ER−, PR−, Her2−) human breast cancer cells; experiment: MTT cell viability assay, MDA-MB-231 cells; type: cell-based; details: for IC50: Homo sapiens
Procedure, shortened: (§1)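 Cells (2×10^3 to 1×10^4 cells/well) were seeded overnight, then exposed to compounds for 24 h to 72 h. Growth was measured by MTT colorimetric assay, with viability calculated as OD570 of treated over vehicle (0.5% DMSO) control ×100.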

[2] = test system: MDA-MB-231 cell migration; experiment: Boyden chamber migration assay; type: cell-based, human; details: 24 h
Description: (§2) To test the anti-migratory and anti-invasive effect of DET. DETD-35 and PTX. Boyden chambers assay was carried out. The lower well of the chamber (6.5 mm diameter, […]; Costar. Cambridge, Mass., USA) was added 10% fetal bovine serum (FBS) as a chemoattractant and filled with DMEM culture medium containing vehicle (DMSO, 0.05%), DET (2.5 and 4 μM). DETD-35 (1.25 and 2.5 μM), or PTX (2.5 and 4 μM). MDA-MB-231 cells were placed into the upper chamber (5×10^4 cells per insert) with the medium containing 0.1% FBS. After 24 h incubation at 37° C. in a 5% CO2 atmosphere, non-migrating cells were scraped from the upper surface of the membrane using a cotton swab, and the migrated cells remaining in the well were fixed and stained with DAPI solution (4,6-diamidino-2-phenylindole, 1 μg/ml). The migrating cells were counted in three fields at 20× original magnifications by inverted fluorescence microscopy. To test the anti-invasive effect of the compounds, 8-μm filters were pre-coating with Matrigel (30 μg per filter) and incubated at 37° C. for 2 h, then followed the protocol of migration assay descried about.

[3] = test system: MDA-MB-231 lung metastasis; experiment: Lung metastasis of MDA-MB-231 cells in SCID mice; type: in vivo, mouse; details: post-treatment, 5 mg/kg i.p. every three days
Description: Female SCID mice (5 weeks old, average body weight 19.59±1.26 g) were assigned to 8 groups: PIX group (5 mg/kg paclitaxel), DETD-35-2 group (2 mg/kg DETD-35), DETD-35-10 group (10 mg/kg DETD-35). PTX-5+DETD-35-2 group (5 mg/kg paclitaxel and 2 mg/kg DETD-35 administration alternatively for eleven doses of paclitaxel (PTX) and ten doses of DETD-35 in total), tumor (vehicle) group (5% DMSO), and sham group (5% DMSO). Pre-DETD-35-10 group was the mice administered 10 mg/kg DETD-35 every two days for three doses before the i.v. injection of 1×10^6 MDA-MB-231 tumor cells at day 0. All other drug or compounds were administered i.p. every three days starting from day 1. At the end of experiment (day 71), the test mice were sacrificed by cervical dislocation. The lung, liver, kidney, and spleen organs were removed and recorded weights and calculated for organ index (% of organ weight/body weight). The number of tumor colonies on lungs of test mice was counted.

MDA-MB-231 cell invasion = experiment: Boyden chamber (Matrigel) invasion assay; type: cell-based, human; details: 24 h
Description: as §2

A2058 (BRAF mutation) = experiment: MTT cell viability assay, A2058 melanoma; type: cell-based, human; details: Homo sapiens, A2058, 24 h
Procedure, shortened: (§3)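 Cells seeded at 2×10^3 to 1×10^4 cells/well overnight, then exposed to compounds for 24 h to 72 h. Growth measured by MTT colorimetric assay; viability expressed as OD570 treated/OD570 vehicle (0.5% DMSO) ×100.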

[4] = test system: RAW264.7 (normal macrophage); experiment: MTT cell viability assay, RAW264.7 macrophages; type: cell-based, mouse; details: Mus musculus, RAW264.7, 24 h
Procedure, shortened: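 RAW264.7 macrophages (2×10^5 cells/well) pretreated with compounds 1 h, then incubated 24 h with or without 100 ng/μL LPS. Viability by MTT colorimetric assay run in parallel with Griess nitrite measurement.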

A375 (BRAF mutation) = experiment: MTT cell viability assay, A375 melanoma; type: cell-based, human; details: Homo sapiens, A-375, 24 h, 24 h, MTT; read-out: IC50 on cell viability, A375 (BRAF mutation)
Procedure, shortened: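 A375 cells were seeded at 2×10^3 to 1×10^4 per well overnight and then exposed to compounds for 24 h to 72 h. Viability was measured by MTT absorbance at OD570 relative to 0.5% DMSO vehicle (100%), and IC50 was derived from it. Combination with PLX4032 was scored by combination index.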

HTB-68 (NRAS mutation) = experiment: MTT cell viability assay, HTB-68 melanoma; type: cell-based, human; details: Homo sapiens, 24 h
Procedure, shortened: as §3

PC3 (Prostate) = experiment: MTT cell viability assay, PC3; type: cell-based; details: 24 h
Description: (§4) Normal or cancer cells (2×10^3 to 1×10^4 cells/well) were seeded in 96-well plate for overnight and treated with different compounds for 24 h to 72 h. Cells growth were determined by MTT-based colorimetric assays according to. Viability of the test cells treated with vehicle (0.5% DMSO) only was defined as 100% viable. Survival of cells after treatment with DETDs was calculated using the following formula: viable cell number (%)=OD570 (treated cell culture)/OD570 (vehicle control)×100.
(§5) Based on toxicity results of DET and DETDs on different breast cancer and melanoma cell lines, we selected DETD-6, -32, -35 and -39, under the consideration of structure activity relationship for evaluating their suppression effect against other cancer types of cell line with indicated tumor origin in Table 5. […] The cells were treated with compounds for 24 h and then subjected to MTT assays.

[5] = test system: A498 kidney cancer cell line; experiment: MTT cell viability assay, A498; type: cell-based; details: Homo sapiens, 24 h
Description: as §4, §5

[6] = test system: NES-SA uterus cancer cell line; experiment: MTT cell viability assay, NES-SA; type: cell-based; details: 24 h
Description: as §4, §5

[7] = test system: M10 normal mammary epithelial cells; experiment: MTT cell viability assay, M10 normal cells; type: cell-based, human; details: 24 h; for IC50: Homo sapiens, Epithelial cell
Procedure, shortened: as §1

[8] = test system: U-87MG brain cancer cell line; experiment: MTT cell viability assay, U-87MG; type: cell-based; details: Homo sapiens, 24 h
Description: as §4, §5

[9] = test system: TS/A (ER+, Her2−) murine mammary cancer cells; experiment: MTT cell viability assay, TS/A cells; type: cell-based; details: Mus musculus
Procedure, shortened: as §1

[10] = test system: LPS-induced nitric oxide (NO) production in RAW 264.7 cells; experiment: Nitric oxide production in LPS-stimulated macrophages (Griess); type: cell-based, mouse; details: Mus musculus; LPS-stimulated RAW264.7, nitrite 24 h after LPS
Procedure, shortened: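 RAW 264.7 macrophages (2×10^5 cells/well) were pretreated with compound for 1 h and then stimulated with 100 ng/μL LPS for 24 h. NO was measured as nitrite in the medium by the Griess reaction. Viability was checked in parallel by MTT.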

B16-F10 (NRAS mutation) = experiment: MTT cell viability assay, B16-F10 melanoma; type: cell-based; details: Mus musculus, B16-F10, 24 h
Procedure, shortened: as §3

[11] = test system: MCF-7 (ER+, Her2−) human breast cancer cells; experiment: MTT cell viability assay, MCF-7 cells; type: cell-based
Procedure, shortened: as §1

[12] = test system: melanoma cell lines B16-F10, MeWo, A375, A2058, HTB-68; experiment: MTT cell viability assay, all melanoma cell lines; type: cell-based; details: 24 h, read-out: IC50 values over all types of melanoma cell lines
Description: as §4
Several genes are involved in melanoma development and pathology; specifically, mutation in V-raf murine sarcoma viral oncogene homolog B1 (B-RAF) occurs approximately 50-60% and in neuroblastoma RAS viral oncogene homolog (N-RAS) occurs about 30% of malignant melanomas. A spectrum of wild-type or mutated melanoma cell lines including B16-F10, MeWo, A375, A2058, HTB-68, and melanocyte were used to study anti-melanoma cell proliferation activity of parental phytocompound DET and newly synthesized DETDs.

[13] = test system: Melanocyte (Normal cells); experiment: MTT cell viability assay, normal melanocytes; type: cell-based, human; details: Homo sapiens, Melanocyte, 24 h
Procedure, shortened: as §3

[14] = test system: PC6 lung cancer cell line; experiment: MTT cell viability assay, PC6; type: cell-based; details: 24 h
Description: as §4, §5

[15] = test system: HCT-116 colon cancer cell line; experiment: MTT cell viability assay, HCT-116; type: cell-based; details: Homo sapiens, 24 h
Description: as §4, §5

U937 lymphoma line = experiment: MTT cell viability assay, U937; type: cell-based; details: Homo sapiens, U-937, 24 h
Description: as §4, §5

[16] = test system: MeWo (No NRAS or BRAF mutation); experiment: MTT cell viability assay, MeWo melanoma; type: cell-based, human; details: Homo sapiens, MeWo, 24 h
Procedure, shortened: as §3

[17] = test system: KATO III stomach cancer cell line; experiment: MTT cell viability assay, KATO III; type: cell-based; details: Homo sapiens, 24 h
Description: as §4, §5

[18] = test system: SK-N-MC neuroepithelioma line; experiment: MTT cell viability assay, SK-N-MC; type: cell-based; details: Homo sapiens, 24 h
Description: as §4, §5

[19] = higher concentrations (DET 4 μM, DETD-35 2.5 μM, PTX 4 μM)
[20] = lower concentrations (DET 2.5 μM, DETD-35 1.25 μM, PTX 2.5 μM)
[21] = MDA-MB-231, 24 h, read-out: IC50 on cell viability, MDA-MB-231 (ER−, PR−, Her2−)
[22] = MDA-MB-231, Table 5, 24 h, read-out: IC50 viability MDA-MB-231 (Breast)
[23] = 24 h, read-out: IC50 on cell viability, TS/A (ER+, Her2−)
[24] = Table 5, 24 h, read-out: IC50 viability TS/A (mouse) (Breast)
[25] = 24 h, read-out: IC50 on cell viability, B16-F10 (NRAS mutation)
[26] = Table 5, 24 h, read-out: IC50 viability B16-F10 (mouse) (Skin)
[27] = MCF7, 24 h, read-out: IC50 on cell viability, MCF-7 (ER+, Her2−)
[28] = MCF7, Table 5, 24 h, read-out: IC50 viability MCF-7 (Breast)

SMILES | IC50 (A2058 (BRAF mutation)) [nM] | IC50 [1, 21] [nM] | IC50 [1, 22] [nM] | IC50 [4] [nM] | IC50 (A375 (BRAF mutation)) [nM] | IC50 (HTB-68 (NRAS mutation)) [nM] | IC50 (PC3 (Prostate)) [nM] | IC50 [5] [nM] | IC50 [6] [nM] | IC50 [7] [nM] | IC50 [8] [nM] | IC50 [9, 23] [nM] | IC50 [9, 24] [nM] | IC50 [10] [nM] | IC50 (B16-F10 (NRAS mutation); [25]) [nM] | IC50 (B16-F10 (NRAS mutation); [26]) [nM] | IC50 [11, 27] [nM] | IC50 [11, 28] [nM] | IC50 [13] [nM] | IC50 [14] [nM] | also measured
CC(=O)O[C@H]1C(=O)[C@@]2(C)[C@H]([C@H](OC(=O)c3ccccc3)[C@]3(O)C[C@H](OC(=O)[C@H](O)[C@@H](NC(=O)c4ccccc4)c4ccccc4)C(C)=C1C3(C)C)[C@]1(OC(C)=O)CO[C@@H]1C[C@@H]2O [PTX, paclitaxel] |  |  |  |  |  |  |  |  |  |  |  |  |  |  |  |  |  |  |  |  | IC60 on MDA-MB-231 cells ([1]; 24 h): 23.8 nM; reduction of cell migration vs vehicle control [2, 19]: 88%; suppression of cell migration vs vehicle control [2, 20]: 87%; reduction of number of tumor foci in lungs vs tumor control [3]: 62%; inhibition of cell invasion (MDA-MB-231 cell invasion; [19]): 90%; inhibition of cell invasion (MDA-MB-231 cell invasion; [20]): 85%
C=C1C(=O)O[C@H]2CC3=C[C@@H](C/C(C)=C/[C@@H](OC(=O)/C=C/c4ccccc4)[C@H]12)OC3=O [DETD-6] | 3900 | 4200 | 4000 | > 10000 | 3300 | 5700 | 4500 | 1110 | 420 | 4900 | 350 | 1600 | 1800 | 2500 | 3900 | 3900 | 1600 | 4800 | > 10000 | 170 | IC50 on cell viability, M10 (normal) [7]: some toxicity; IC50 [12]: 1600 to 9900 nM; IC50 [15]: 110 nM; IC50 (U937 lymphoma line): 180 nM; IC50 [16]: 9900 nM; IC50 [17]: 420 nM; IC50 [18]: 320 nM
C=C1C(=O)O[C@H]2CC3=C[C@@H](C/C(C)=C/[C@@H](OC(=O)c4ccc(OC)cc4)[C@H]12)OC3=O [DETD-32] | > 10000 | 3900 | 3900 | > 10000 | > 10000 | > 10000 | 6200 | 1480 | 500 | > 7500 | 420 | 1900 | 1900 | 2600 | 4200 | 4200 | 4300 | 4300 | > 10000 | 470 | IC50 [15]: 360 nM; IC50 (U937 lymphoma line): 390 nM; IC50 [16]: > 10000 nM; IC50 [17]: 820 nM; IC50 [18]: 510 nM
